Test results taken from ChEMBL document CHEMBL3988442, “University of Dundee, Small-Polar-MMV Screening Library” (2021).
Where “and” joins values, the source holds several entries; their conditions need not be identical. Equal values may be shown once.

How the values were obtained:
[1] = microbe, parasite or virus in culture; conditions: Mycobacterium tuberculosis, 96 h, read-out: pIC50 (converted)
[2] = microbe, parasite or virus in culture; conditions: Mycobacterium tuberculosis, 72 h, read-out: pIC50 (converted)
[3] = target: T1, Histidine--tRNA ligase (Leishmania infantum, UniProt A4I591); assay: Leishmania infantum Histidine tRNA synthetase (LdHisRS); assay type: functional
T1 sequence (A4I591 whole entry): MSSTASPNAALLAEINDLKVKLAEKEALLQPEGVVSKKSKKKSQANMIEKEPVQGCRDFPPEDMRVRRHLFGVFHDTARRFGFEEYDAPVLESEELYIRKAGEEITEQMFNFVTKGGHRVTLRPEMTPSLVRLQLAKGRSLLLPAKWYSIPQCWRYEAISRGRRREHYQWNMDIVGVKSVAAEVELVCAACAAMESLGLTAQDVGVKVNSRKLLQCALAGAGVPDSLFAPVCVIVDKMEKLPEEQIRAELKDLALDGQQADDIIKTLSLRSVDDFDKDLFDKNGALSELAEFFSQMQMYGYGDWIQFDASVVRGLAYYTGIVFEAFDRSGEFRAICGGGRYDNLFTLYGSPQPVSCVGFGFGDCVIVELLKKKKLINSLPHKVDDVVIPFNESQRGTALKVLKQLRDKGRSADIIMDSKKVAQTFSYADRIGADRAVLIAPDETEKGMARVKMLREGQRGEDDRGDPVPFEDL

[4] = test system: Plasmodium falciparum; assay: Calibr Malaria Delayed Death Assay SOP; assay type: functional, organism-based; conditions: for IC50: Plasmodium falciparum
[5] = In vitro enzyme assay to detect hydrolysis of chlorophenol red-beta-D-[…] directly proportional to the number of Toxoplasma stably expressing beta-galactosidase; assay type: functional, organism-based, Toxoplasma gondii; conditions: for IC50: Toxoplasma gondii
[6] = test system: Leishmania donovani; assay: Leishmania intramacrophage assay; assay type: functional, organism-based; conditions: for IC50: Leishmania donovani
[7] = test system: Schistosoma mansoni; assay: High throughput screening of compounds against Schistosoma mansoni motility; assay type: functional; design: dose or concentration left out as unconfirmed
[8] = target: Tryptophan--tRNA ligase (Mycobacterium tuberculosis (strain ATCC 25618 / H37Rv), UniProt P9WFT3); assay: Biochemical assay for Mt-TrpRS; assay type: functional
[9] = target: ClpP1P2 (Mycobacterium tuberculosis (strain ATCC 25618 / H37Rv), UniProt P9WPC3+P9WPC5); assay: in vitro assay to detect presence of AMC directly proportional to the activity of ClpP1P2. GHDDI collaboration.; assay type: functional
ClpP1P2, sequence (P9WPC5 whole entry): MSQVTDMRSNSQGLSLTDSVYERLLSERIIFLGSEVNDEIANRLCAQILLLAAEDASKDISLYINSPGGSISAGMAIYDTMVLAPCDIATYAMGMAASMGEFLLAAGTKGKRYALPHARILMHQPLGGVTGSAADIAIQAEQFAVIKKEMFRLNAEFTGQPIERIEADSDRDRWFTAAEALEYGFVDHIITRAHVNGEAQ
ClpP1P2, sequence (P9WPC3 whole entry): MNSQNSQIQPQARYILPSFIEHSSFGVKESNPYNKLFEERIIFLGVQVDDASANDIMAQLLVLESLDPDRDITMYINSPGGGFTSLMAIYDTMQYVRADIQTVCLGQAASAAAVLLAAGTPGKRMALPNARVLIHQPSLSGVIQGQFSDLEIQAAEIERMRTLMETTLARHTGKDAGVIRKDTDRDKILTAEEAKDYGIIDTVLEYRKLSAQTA

Tryptophan--tRNA ligase, sequence (P9WFT3 whole entry): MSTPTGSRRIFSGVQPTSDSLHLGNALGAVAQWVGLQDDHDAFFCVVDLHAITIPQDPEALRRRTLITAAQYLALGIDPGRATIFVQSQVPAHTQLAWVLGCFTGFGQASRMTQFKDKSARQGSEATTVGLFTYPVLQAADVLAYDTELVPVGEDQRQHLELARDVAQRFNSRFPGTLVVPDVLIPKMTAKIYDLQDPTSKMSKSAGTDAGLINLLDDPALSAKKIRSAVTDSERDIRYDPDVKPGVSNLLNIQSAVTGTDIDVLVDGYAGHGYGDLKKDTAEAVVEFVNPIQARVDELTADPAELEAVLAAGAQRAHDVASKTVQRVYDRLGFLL

CCC1CN(CC(=O)NCCN2CCCCCC2)c2ccccc2S1 (stereo not drawn)
IC50 [1]: > 50.1 µM | IC50 [2]: 44.8 µM | IC50 [3]: 39.1 µM and 39.7 µM | pIC50 [4]: 5.947 | IC50 [4]: 1.33 µM

O=C(Nc1nccs1)c1csc(NC2CCCC2)n1
IC50 [5]: 4.36 µM | IC50 [1]: 34.5 µM | IC50 [2]: 28.4 µM | IC50 [3]: 30.3 µM and 43.9 µM

CC(=O)c1c(C)nn(CC(=O)Nc2ccc(Br)cc2)c1C
IC50 [5]: 7.32 µM | IC50 [2]: 8.6 µM | IC50 [3]: 6.08 µM and 7.13 µM

COc1ccc(NC(=O)Cn2nc(C)c(C(C)=O)c2C)cc1
IC50 [5]: 3.61 µM | IC50 [1]: 19 µM | IC50 [2]: 22.1 µM | IC50 [3]: 17.2 µM and 14 µM | pIC50 [4]: 6.455 | IC50 [4]: 0.421 µM

CC(C)Nc1nc2c(c(NC3CC3)n1)CCN(C1CCOCC1)CC2
pIC50 [6]: 4.789 | IC50 [6]: 13 µM

Cc1ccc(CN2Cc3c(cnn3C)C(COCC3CC3)C2)s1 (stereo not drawn)
pIC50 [6]: 5.151 and 4.71

Cc1[nH]/c(=N\C(=O)c2csc(NC3CCCC3)n2)sc1C
pIC50 [5]: 5.387 | IC50 [5]: 3.16 µM | IC50 [1]: > 50.1 µM | IC50 [2]: 19.8 µM | IC50 [3]: 18 µM and 18.2 µM

Cc1cnc2n(c1=O)CC(C(=O)Nc1cccc3cccnc13)CS2 (stereo not drawn)
Percent Effect [7]: -85.49% | IC50 [3]: 78.6 µM and 68.6 µM

CCOc1ccc(CNCCCn2ccnc2)cc1Br
pIC50 [6]: 4.774 | IC50 [6]: 14.4 µM

CC(C)C[C@H](N)COc1cccc(F)c1Oc1ccccc1
pIC50 [6]: 4.696 | IC50 [6]: 12.5 µM

COc1ccccc1C(=O)NC(c1ccccn1)[C@H]1CC[C@H](CN)CC1 (stereo partly drawn)
IC50 [8]: > 195 µM | IC50 [3]: 9.74 µM and 9.59 µM

COCC(O)CNc1cncc(Br)c1 (stereo not drawn)
IC50 [8]: > 195 µM | IC50 [3]: > 100 µM

CCCC(O)CNc1cncc(Br)c1 (stereo not drawn)
IC50 [1]: 21.7 µM | IC50 [8]: > 195 µM | IC50 [2]: > 50.1 µM | IC50 [3]: > 100 µM

CN1CCC(N(Cc2ccco2)S(=O)(=O)c2cc(Br)ccc2Br)CC1
pIC50 [6]: 4.867 | IC50 [6]: 17.8 µM

Clc1cc(CN2CCCN3CCCC3C2)c2ncccc2c1 (stereo not drawn)
IC50 [1]: 12.2 µM | IC50 [2]: 8.48 µM | IC50 [3]: 26.6 µM and 21.9 µM | pIC50 [4]: 5.897 | IC50 [4]: 1.3 µM

CCn1nc2c(cc1=O)CN(c1ncnc3sccc13)CC2
IC50 [5]: 15 µM | IC50 [3]: 15.5 µM and 11.5 µM

COc1ccccc1CN(C)C(=O)CN1CC(n2nc(C)cc2C)C1
pIC50 [6]: 4.762 | IC50 [6]: 19.1 µM

CCn1nc2c(cc1=O)CN(c1ncnc3ccsc13)CC2
IC50 [5]: 11.2 µM | IC50 [3]: 54.3 µM and 39.8 µM

COc1ccccc1C1(CNCc2cccc(O)c2)CCOCC1
IC50 [3]: 1.13 µM and 1.34 µM (2×) and 1.43 µM | pIC50 [4]: 6.352 | IC50 [4]: 0.31 µM

COc1ccccc1C1(CNCc2cccc(C#N)c2)CCOCC1
IC50 [3]: 70.8 µM and 65.6 µM | pIC50 [4]: 5.883 | IC50 [4]: 1.49 µM

COCC(=O)Nc1ccnn1-c1ccc(Cl)cc1
pIC50 [6]: 4.861 | IC50 [6]: 13.5 µM

Brc1ccc(C2(CNCc3cc[nH]c3)CCOCC2)cc1
IC50 [3]: 39.5 µM and 23.5 µM | pIC50 [4]: 6.139 | IC50 [4]: 0.542 µM

Cc1cc(=O)n2nc(Oc3ccc(Cl)c(C)c3)sc2n1
pIC50 [6]: 4.378 | IC50 [6]: > 50.1 µM

Cc1cc(NC(=O)CN2CCc3nn(C)c(=O)cc3C2)on1
Percent Effect [7]: -32.24% | IC50 [3]: 71.2 µM and 54.8 µM

Cn1nc2c(cc1=O)CN(CCc1nc3ccccc3c(=O)[nH]1)CC2
Percent Effect [7]: -34.74% | IC50 [3]: 67.7 µM and 54.2 µM

CCc1ccc(-c2ncc3c(n2)N(C)CCN(CCN(C)C)C3=O)cc1
pIC50 [6]: 4.813 | IC50 [6]: 10.3 µM

Cc1nc2c(c(NCC(O)c3ccccc3Cl)n1)CCNCC2 (stereo not drawn)
pIC50 [6]: 4.337 | IC50 [6]: 44.8 µM

Cn1ccc2c(-c3cc(N4CCCCC4)ncn3)ccnc21
IC50 [9]: > 100 µM | IC50 [3]: 54.3 µM and 45.7 µM

Clc1ccccc1-c1cc(CNc2ncnc3c2CCNCC3)no1
pIC50 [6]: 4.821 | IC50 [6]: 12 µM

NC(=O)c1cnc2n1CCN(C(=O)c1ccc(Cn3cccc3)cc1)C2
IC50 [9]: > 100 µM | IC50 [3]: 22.7 µM and 17.3 µM

Cc1nc2c(c(NCc3ccc(-c4ccccn4)s3)n1)CCNCC2
pIC50 [6]: 4.913 | IC50 [6]: 17.9 µM

CN(Cc1cc2cc(F)ccc2[nH]1)c1cc(C2CCCNC2)ncn1 (stereo not drawn)
pIC50 [6]: 4.89 | IC50 [6]: 21.5 µM

Cc1cccnc1[C@H](C)Nc1nc(-c2cccnc2)nc2c1CNC2
IC50 [3]: 36.4 µM and 22.4 µM | pIC50 [4]: 5.936 | IC50 [4]: 0.951 µM

CCc1nc2c(N3CCC4(CC3)CC(=O)N(CC(C)C)C4)ncnc2o1
pIC50 [6]: 4.305 | IC50 [6]: > 50.1 µM

CCOc1ccc(-c2c(-c3ccccc3)ncn2C2CCNC2)cn1 (stereo not drawn)
pIC50 [6]: 4.374 | IC50 [6]: > 50.1 µM

Cc1c(CN2CC[C@@H](N3CCC(O)CC3)[C@H](O)C2)[nH]c2ccc(Cl)cc12
pIC50 [6]: 4.995 | IC50 [6]: 10.7 µM
